Measured values: EP3248604A1, “AGENTS FOR MODULATION OF WNT-TCF SIGNALLING AND USES THEREOF” (UNIVERSITE DE GENEVE, priority 2016, dated 2017)

Key:
[1] = test system: CC14 cells; assay: Epithelial island morphology of CC14 cells; assay type: cell-based, human; conditions: 1 µM, 24h
Protocol: Similar phenotypes were only observed at 10 µM of CAP1 or 5 µM of CAP3. CAP2 was thus chosen for further detailed analyses.

[2] = test system: DLD1 cells; assay: Clonal spheroid assay, DLD1; assay type: cell-based, human; conditions: DLD1 pretreated in 2D; normalized over DMSO controls (Figure 11A)
Protocol: (§1) Cells were treated with different concentrations of compounds for 16h in 2D adherent culture, washed, harvested and plated in suspension with serum-free DMEM-F12 media with B27 supplement (1:50 dilution) at 1 cell/well in 96-well format in triplicates. Plated cells were monitored to ensure the presence of single cells in each well and spheroids counted and photographed after 10 days for each round.
(§2) To directly test for a long-lasting repression of WNT-TCF targets by CAP2 clonogenic properties of cancer stem cells were tested. DLD1 and LS174T cells were first treated with CAP2 in 2D culture in vitro followed by removal of the drug, washing with PBS, and plating under non-adherent 3D conditions for clonal spheroid growth in the absence of the drug. After primary spheroid growth, the spheroids were dissociated and replated as single cells for secondary and subsequent clonogenic spheroid formation, also in the absence of the compound of the invention. As negative control DMSO-treatment was used.

[3] = test system: CC14 cells; assay: Live imaging cell proliferation (growth curves); assay type: cell-based, human; conditions: 150 nM, vs DMSO
Protocol: Primary colon cells CC14 were cultured in DMEM-F12 with 10% FBS under standard in vitro conditions.
Live imaging and quantification of total cell mass was performed using a Widefield plate reader, ImageXpress XL with an inbuilt temperature and CO2 controller, and a CoolSnap HQ camera (Photometrics).

[4] = test system: DLD1 xenografts; assay: DLD1 colon cancer xenograft in Nude mice; assay type: in vivo
Protocol: 0.5x10^6 DLD1/ GFP^+ (cells expressing green fluorescent protein) cells were injected per flanks into 6 week-old female Nude mice (Janvier Labs). CAP2 (10mg/kg) complexed with cyclodextrine as vehicle, or vehicle alone, were injected daily intra-peritoneally (IP) once the tumors were palpable (25-50 mm^3). Tumor volumes were measured every other day with a caliper. Animals were sacrificed at the end of experiment and tumors harvested.
CAP2 from four independent batches supplied by Analyticon Discovery was dissolved in DMSO and suspended in 45% beta-cyclodextrin. 45% beta-cyclodextrin was used as vehicle for controls. 150µl of drug or vehicle alone was administered per mouse daily.
GFP^+ DLD1-engrafted mice were treated with cyclodextrin-conjugated CAP2 at 10mg/kg via IP […] starting at the time when tumors were palpable. […] Analyses of gene expression using human-specific primers in treated tumors (using the excised area where remnant DLD-GFP^+ cells could be found) confirmed the repression of human AXIN2, ASCL2 and LGR5 (Table 11).

[5] = test system: Ls174T cells; assay: Clonal spheroid assay, Ls174T; assay type: cell-based, human; conditions: Ls174T pretreated at 5µM; after three passes
Protocol: as §1, §2

[6] = test system: CYCLIN D1; assay: Western blot of CYCLIN D1 in DLD1 cells; assay type: cell-based, human; conditions: 5 µM CAP2 (batch 3), vs DMSO
Protocol: Western blot performed according to standard methods.
The effect of CAP2 on WNT-TCF signaling the levels of direct TCF target CYCLIN D1 were measured since it is useful to measure TCF response (Melotti et al., 2014, sura).

CC1=C(C)C(=O)O[C@@H]([C@](C)(O)[C@]2(O)CC[C@@]3(O)[C@@H]4CC=C5C=CCC(=O)[C@]5(C)[C@H]4CC[C@]23C)C1 [CAP2]
epithelial island morphology [1]: totally disrupted
primary 3D clonal spheroids [2]: dose-dependent decrease in primary spheroids
effect on cell growth (growth curves) [3]: growth repressive effect
side effects ([4]; DLD1 xenograft, Nude mice, 10mg/kg IP): without any visible side effects
tumor growth ([4]; DLD1 xenograft, Nude mice, cyclodextrin-conjugated CAP2 10mg/kg IP, vs cyclodextrin carrier): blockade of tumor growth
number of regressed tumors that re-grew ([4]; four DLD1 regressed tumors, 90 days following drug removal): one
clonogenic cancer stem cells in serial spheroid assays [5]: exhaustion of clonogenic cancer stem cells
level of CYCLIN D1 (Western blot) [6]: decrease in the level of TCF target CYCLIN D1
